# Results reported in ChEMBL document CHEMBL1131309, “Isoindol-1-one analogues of 4-(2'-methoxyphenyl)-1-[2'-[N-(2"-pyridyl)-p-iodobenzamido]ethyl]pipera zine (p-MPPI) as 5-HT1A receptor ligands” (J Med Chem, 1998).
# Key:
# Rattus norvegicus [1] = assay: Biodistribution was measured in rat liver by injecting the radiolabeled compound intravenously and the value measured after 60 min; format: ADME, organism-based; details: in vivo, iv, 1 h
# Rattus norvegicus [2] = assay: Biodistribution was measured in rat liver by injecting the radiolabeled compound intravenously and the value measured after 2 min; format: ADME, organism-based; details: in vivo, iv
# Rattus norvegicus [3] = assay: Biodistribution was measured in rat cerebellum by injecting the radiolabeled compound intravenously and the value measured after 30 min; format: ADME, organism-based; details: in vivo, iv, 0.5 h
# Rattus norvegicus [4] = assay: Biodistribution was measured in rat cortex by injecting the radiolabeled compound intravenously and the value measured after 60 min; format: ADME, organism-based; details: in vivo, iv, 1 h
# Rattus norvegicus [5] = assay: Biodistribution was measured in rat hippocampus by injecting the radiolabeled compound intravenously and the value measured after 2 min; format: ADME, organism-based; details: in vivo, iv
# Rattus norvegicus [6] = assay: Biodistribution was measured in rat kidney by injecting the radiolabeled compound intravenously and the value measured after 2 min; format: ADME, organism-based; details: in vivo, iv
# [7] = target: T1, 5-hydroxytryptamine receptor 1A (Rattus norvegicus, UniProt P19327)
# T1 sequence (P19327 whole entry): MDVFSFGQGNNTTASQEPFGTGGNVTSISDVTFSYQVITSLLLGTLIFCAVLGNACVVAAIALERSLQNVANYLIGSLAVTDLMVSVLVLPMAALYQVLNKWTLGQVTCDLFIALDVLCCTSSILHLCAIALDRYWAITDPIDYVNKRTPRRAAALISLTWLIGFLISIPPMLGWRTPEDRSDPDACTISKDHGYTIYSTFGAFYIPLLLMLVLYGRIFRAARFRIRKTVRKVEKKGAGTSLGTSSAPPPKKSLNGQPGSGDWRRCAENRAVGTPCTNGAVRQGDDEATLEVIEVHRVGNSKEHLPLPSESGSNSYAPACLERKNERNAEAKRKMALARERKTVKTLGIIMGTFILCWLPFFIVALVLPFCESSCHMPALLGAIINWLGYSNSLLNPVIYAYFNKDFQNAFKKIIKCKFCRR
# Description: (§1) In vitro binding affinity for 5-hydroxytryptamine 1A receptor in rat hippocampal membranes by [125I]-labeled agonist displacement.
# [8] = Biodistribution was measured in hippocampus region(HP/CB) by injecting the radiolabeled compound intravenously and the value measured after 2 min; format: ADME, organism-based; details: in vivo, iv
# Rattus norvegicus [9] = assay: Biodistribution was measured in rat liver by injecting the radiolabeled compound intravenously and the value measured after 30 min; format: ADME, organism-based; details: in vivo, iv, 0.5 h
# Rattus norvegicus [10] = assay: Biodistribution was measured in rat cerebellum by injecting the radiolabeled compound intravenously and the value measured after 60 min; format: ADME, organism-based; details: in vivo, iv, 1 h
# Rattus norvegicus [11] = assay: Biodistribution was measured in rat striatum by injecting the radiolabeled compound intravenously and the value measured after 2 min; format: ADME, organism-based; details: in vivo, iv
# Rattus norvegicus [12] = assay: Biodistribution was measured in rat brain by injecting the radiolabeled compound intravenously and the value measured after 30 min; format: ADME, organism-based; details: in vivo, iv, 0.5 h
# Rattus norvegicus [13] = assay: Biodistribution was measured in rat skin by injecting the radiolabeled compound intravenously and the value measured after 30 min; format: ADME, organism-based, Zone of skin; details: in vivo, iv, 0.5 h
# Rattus norvegicus [14] = assay: Biodistribution was measured in rat cortex by injecting the radiolabeled compound intravenously and the value measured after 30 min; format: ADME, organism-based; details: in vivo, iv, 0.5 h
# Rattus norvegicus [15] = assay: Biodistribution was measured in rat cerebellum by injecting the radiolabeled compound intravenously and the value measured after 2 min; format: ADME, organism-based; details: in vivo, iv
# Rattus norvegicus [16] = assay: Biodistribution was measured in rat heart by injecting the radiolabeled compound intravenously and the value measured after 2 min; format: ADME, organism-based; details: in vivo, iv
# Rattus norvegicus [17] = assay: Biodistribution was measured in rat heart by injecting the radiolabeled compound intravenously and the value measured after 30 min; format: ADME, organism-based; details: in vivo, iv, 0.5 h
# Rattus norvegicus [18] = assay: Biodistribution was measured in rat skin by injecting the radiolabeled compound intravenously and the value measured after 60 min; format: ADME, organism-based, Zone of skin; details: in vivo, iv, 1 h
# Rattus norvegicus [19] = assay: Biodistribution was measured in blood of rat by injecting the radiolabeled compound intravenously and the value measured after 2 min; format: ADME, organism-based; details: in vivo, iv
# Rattus norvegicus [20] = assay: Biodistribution was measured in rat kidney by injecting the radiolabeled compound intravenously and the value measured after 30 min; format: ADME, organism-based; details: in vivo, iv, 0.5 h
# Rattus norvegicus [21] = assay: Biodistribution was measured in rat thyroid by injecting the radiolabeled compound intravenously and the value measured after 2 min; format: ADME, organism-based, Thyroid gland; details: in vivo, iv
# Rattus norvegicus [22] = assay: Biodistribution was measured in rat muscle by injecting the radiolabeled compound intravenously and the value measured after 60 min; format: ADME, organism-based, Muscle tissue; details: in vivo, iv, 1 h
# Rattus norvegicus [23] = assay: Biodistribution was measured in rat kidney by injecting the radiolabeled compound intravenously and the value measured after 60 min; format: ADME, organism-based; details: in vivo, iv, 1 h
# Rattus norvegicus [24] = assay: Biodistribution was measured in rat spleen by injecting the radiolabeled compound intravenously and the value measured after 30 min; format: ADME, organism-based; details: in vivo, iv, 0.5 h
# [25] = Biodistribution was measured in hippocampus region(HP/CB) by injecting the radiolabeled compound intravenously and the value measured after 60 min; format: ADME, organism-based; details: in vivo, iv, 1 h
# Rattus norvegicus [26] = assay: Biodistribution was measured in rat brain by injecting the radiolabeled compound intravenously and the value measured after 2 min; format: ADME, organism-based; details: in vivo, iv
# Rattus norvegicus [27] = assay: Biodistribution was measured in rat heart by injecting the radiolabeled compound intravenously and the value measured after 60 min; format: ADME, organism-based; details: in vivo, iv, 1 h
# Rattus norvegicus [28] = assay: Biodistribution was measured in rat striatum by injecting the radiolabeled compound intravenously and the value measured after 60 min; format: ADME, organism-based; details: in vivo, iv, 1 h
# Rattus norvegicus [29] = assay: Biodistribution was measured in rat lung by injecting the radiolabeled compound intravenously and the value measured after 30 min; format: ADME, organism-based; details: in vivo, iv, 0.5 h
# Rattus norvegicus [30] = assay: Biodistribution was measured in rat spleen by injecting the radiolabeled compound intravenously and the value measured after 60 min; format: ADME, organism-based; details: in vivo, iv, 1 h
# [31] = target: T1, 5-hydroxytryptamine receptor 1A; remark: listed apart in the source
# Description: as §1
# [32] = Biodistribution was measured in hippocampus region(HP/CB) by injecting the radiolabeled compound intravenously and the value measured after 30 min; format: ADME, organism-based; details: in vivo, iv, 0.5 h
# Rattus norvegicus [33] = assay: Biodistribution was measured in rat thyroid by injecting the radiolabeled compound intravenously and the value measured after 60 min; format: ADME, organism-based, Thyroid gland; details: in vivo, iv, 1 h
# Rattus norvegicus [34] = assay: Biodistribution was measured in rat spleen by injecting the radiolabeled compound intravenously and the value measured after 2 min; format: ADME, organism-based; details: in vivo, iv
# Rattus norvegicus [35] = assay: Biodistribution was measured in rat hippocampus by injecting the radiolabeled compound intravenously and the value measured after 60 min; format: ADME, organism-based; details: in vivo, iv, 1 h
# Rattus norvegicus [36] = assay: Biodistribution was measured in blood of rat by injecting the radiolabeled compound intravenously and the value measured after 30 min; format: ADME, organism-based; details: in vivo, iv, 0.5 h
# Rattus norvegicus [37] = assay: Biodistribution was measured in rat lung by injecting the radiolabeled compound intravenously and the value measured after 60 min; format: ADME, organism-based; details: in vivo, iv, 1 h
# Rattus norvegicus [38] = assay: Biodistribution was measured in rat thyroid by injecting the radiolabeled compound intravenously and the value measured after 30 min; format: ADME, organism-based, Thyroid gland; details: in vivo, iv, 0.5 h
# Rattus norvegicus [39] = assay: Biodistribution was measured in rat striatum by injecting the radiolabeled compound intravenously and the value measured after 30 min; format: ADME, organism-based; details: in vivo, iv, 0.5 h
# Rattus norvegicus [40] = assay: Biodistribution was measured in rat brain by injecting the radiolabeled compound intravenously and the value measured after 60 min; format: ADME, organism-based; details: in vivo, iv, 1 h
# Rattus norvegicus [41] = assay: Biodistribution was measured in rat cortex by injecting the radiolabeled compound intravenously and the value measured after 2 min; format: ADME, organism-based; details: in vivo, iv
# Rattus norvegicus [42] = assay: Biodistribution was measured in rat muscle by injecting the radiolabeled compound intravenously and the value measured after 2 min; format: ADME, organism-based, Muscle tissue; details: in vivo, iv
# Rattus norvegicus [43] = assay: Biodistribution was measured in rat hippocampus by injecting the radiolabeled compound intravenously and the value measured after 30 min; format: ADME, organism-based; details: in vivo, iv, 0.5 h
# Rattus norvegicus [44] = assay: Biodistribution was measured in rat muscle by injecting the radiolabeled compound intravenously and the value measured after 30 min; format: ADME, organism-based, Muscle tissue; details: in vivo, iv, 0.5 h
# Rattus norvegicus [45] = assay: Biodistribution was measured in rat lung by injecting the radiolabeled compound intravenously and the value measured after 2 min; format: ADME, organism-based; details: in vivo, iv
# Rattus norvegicus [46] = assay: Biodistribution was measured in blood of rat by injecting the radiolabeled compound intravenously and the value measured after 60 min; format: ADME, organism-based; details: in vivo, iv, 1 h
compound,measurement,setting,value
COc1ccccc1N1CCN(CCN2C(=O)c3cc(I)ccc3C2c2ccccc2)CC1 (centres undefined),Biodistribution,Rattus norvegicus [1],10.76 % dose organ-1
same,Biodistribution,Rattus norvegicus [2],21.36 % dose organ-1
same,Biodistribution,Rattus norvegicus [3],0.08 % dose organ-1
same,Biodistribution,Rattus norvegicus [4],0.028 % dose organ-1
same,Biodistribution,Rattus norvegicus [5],0.177 % dose organ-1
same,Biodistribution,Rattus norvegicus [6],4.01 % dose organ-1
same,Ki,[7],0.069 nM
same,Biodistribution,[8],0.87 % dose organ-1
same,Biodistribution,Rattus norvegicus [9],18.65 % dose organ-1
same,Biodistribution,Rattus norvegicus [10],0.035 % dose organ-1
same,Biodistribution,Rattus norvegicus [11],0.204 % dose organ-1
same,Biodistribution,Rattus norvegicus [12],0.11 % dose organ-1
same,Biodistribution,Rattus norvegicus [13],5.8 % dose organ-1
same,Biodistribution,Rattus norvegicus [14],0.081 % dose organ-1
same,Biodistribution,Rattus norvegicus [15],0.202 % dose organ-1
same,Biodistribution,Rattus norvegicus [16],1.42 % dose organ-1
same,Biodistribution,Rattus norvegicus [17],0.3 % dose organ-1
same,Biodistribution,Rattus norvegicus [18],4.96 % dose organ-1
same,Biodistribution,Rattus norvegicus [19],2.84 % dose organ-1
same,Biodistribution,Rattus norvegicus [20],2.32 % dose organ-1
same,Biodistribution,Rattus norvegicus [21],0.073 % dose organ-1
same,Biodistribution,Rattus norvegicus [22],8.83 % dose organ-1
same,Biodistribution,Rattus norvegicus [23],1.42 % dose organ-1
same,Biodistribution,Rattus norvegicus [24],0.22 % dose organ-1
same,Biodistribution,[25],1.06 % dose organ-1
same,Biodistribution,Rattus norvegicus [26],0.26 % dose organ-1
same,Biodistribution,Rattus norvegicus [27],0.15 % dose organ-1
same,Biodistribution,Rattus norvegicus [28],0.035 % dose organ-1
same,Biodistribution,Rattus norvegicus [29],0.7 % dose organ-1
same,Biodistribution,Rattus norvegicus [30],0.15 % dose organ-1
same,Ki,[31],0.069 nM
same,Biodistribution,[32],1.12 % dose organ-1
same,Biodistribution,Rattus norvegicus [33],0.06 % dose organ-1
same,Biodistribution,Rattus norvegicus [34],0.26 % dose organ-1
same,Biodistribution,Rattus norvegicus [35],0.037 % dose organ-1
same,Biodistribution,Rattus norvegicus [36],1.92 % dose organ-1
same,Biodistribution,Rattus norvegicus [37],0.56 % dose organ-1
same,Biodistribution,Rattus norvegicus [38],0.05 % dose organ-1
same,Biodistribution,Rattus norvegicus [39],0.093 % dose organ-1
same,Biodistribution,Rattus norvegicus [40],0.04 % dose organ-1
same,Biodistribution,Rattus norvegicus [41],0.242 % dose organ-1
same,Biodistribution,Rattus norvegicus [42],9.45 % dose organ-1
same,Biodistribution,Rattus norvegicus [43],0.09 % dose organ-1
same,Biodistribution,Rattus norvegicus [44],14.35 % dose organ-1
same,Biodistribution,Rattus norvegicus [45],2.05 % dose organ-1
same,Biodistribution,Rattus norvegicus [46],1.22 % dose organ-1
COc1ccc([N+](=O)[O-])cc1N1CCN(CCN2C(=O)c3cc(I)ccc3C2c2ccccc2)CC1 (centres undefined),Ki,[7],51.7 nM
COc1ccccc1N1CCN(CCN2C(=O)c3cc([N+](=O)[O-])ccc3C2c2ccccc2)CC1 (centres undefined),Ki,[7],0.045 nM
COc1ccccc1N1CCN(CCN2C(=O)c3cc([N+](=O)[O-])ccc3C2(O)c2ccccc2)CC1 (centres undefined),Ki,[7],0.34 nM
